These results are taken from patent US6818765B1, “Benzene-sulphonamide derivatives and their uses” (Universite de Liege, priority 1999, dated 2004).

pIC50: −log10 of the molar value. Like-named read-outs stand apart in the source and are kept apart here.

Assay [1] addresses T1, TPτ thromboxan A2 receptors (Rattus norvegicus, UniProt P34978).
T1 construct: Two tests on smooth musculature have allowed to confirm the antagonist potency on the TPτ thromboxan A2 receptors; from tissue; host or cells: isolated rat aorta; isolated rat stomach fundus
T1 sequence (P34978 1-341): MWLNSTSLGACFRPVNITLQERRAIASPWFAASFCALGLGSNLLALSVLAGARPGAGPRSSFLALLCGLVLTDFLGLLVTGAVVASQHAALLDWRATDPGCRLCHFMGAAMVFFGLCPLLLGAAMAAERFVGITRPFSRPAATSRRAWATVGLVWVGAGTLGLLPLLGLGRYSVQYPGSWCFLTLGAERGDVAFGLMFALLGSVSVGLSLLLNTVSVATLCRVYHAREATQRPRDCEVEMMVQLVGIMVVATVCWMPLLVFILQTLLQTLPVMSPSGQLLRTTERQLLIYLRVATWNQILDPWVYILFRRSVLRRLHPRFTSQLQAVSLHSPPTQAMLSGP
In words: Rat aorta contraction test (relaxation of aorta precontracted by U-46619). As to conditions: tonus induced by U-46619 (0.03 μM); read-out: IC 50: concentration reducing by 50% the Rat Aorta muscular tonus. From the text: Two tests on smooth musculature have allowed to confirm the antagonist potency on the TPτ thromboxan A2 receptors. Indeed, the capacity of the selected compounds during the binding to prevent the contraction of the rat fundus induced by I′U-46619 and to relax the rat aorta precontracted by this same stable agonist of the TXA2 have been evaluated;
Test desribed according to:
de Tullio P., Pirotte B., Lebrun P., Fontaine J., Dupont L., Antoine M. H., Ouedraogo R., Khelili S., Maggetto C., Masereel B., Diouf O., Podona T., Delarge J., 3-and -4-substituted 4H-pyrido[4,3-e]-1,2,4-thiadiazine 1,1-dioxides as potassium channels openers: synthesis pharmacological evaluation, and structure-activity relationships.—J. Med. Chem., 1996, 39, 937-948.

The target of assay [2] is T2, thromboxane A2 receptors (TPα) of human platelets (Homo sapiens, UniProt P21731).
T2 construct: endogenous in cells; host or cells: human platelets
T2 sequence (P21731 1-343): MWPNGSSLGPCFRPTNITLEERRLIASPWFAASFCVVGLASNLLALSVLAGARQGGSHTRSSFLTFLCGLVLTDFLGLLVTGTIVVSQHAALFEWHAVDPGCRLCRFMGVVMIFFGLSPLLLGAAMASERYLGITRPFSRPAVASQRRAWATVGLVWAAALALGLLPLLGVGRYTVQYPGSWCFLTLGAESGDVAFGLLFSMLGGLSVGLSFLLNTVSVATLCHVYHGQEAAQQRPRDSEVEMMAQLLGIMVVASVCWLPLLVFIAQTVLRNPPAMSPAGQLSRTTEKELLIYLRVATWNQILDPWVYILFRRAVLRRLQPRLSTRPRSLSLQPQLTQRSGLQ
Briefly: Binding test: displacement of [3H]SQ-29.548 from human platelet thromboxane A2 receptors. The conditions noted are these: for inhibition at 1 µM: read-out: Affinity: percent of [3H]SQ-29.548 specifically substituted by the examined compound, compound 10^-6 M; for inhibition at 0.1 µM: read-out: Affinity: percent of [3H]SQ-29.548 specifically substituted by the examined compound, compound 10^-7 M. The source says: To operate a first selection, the capacity of these compounds to displace in a specific way a tritium ligand, the [^3H]
Cozzi P., Giordani A., Menichincheri M., Pillan A., Pinciroli V., Rossi A., Tonani R., Volpi D., Tamburin M., Ferrario R., Fusar D., Salvati P.,—Agents combining thromboxane receptor antagonism with thromboxane synthase inhibition:[[[2-(1H-imidazol-1-yl)ethylidene]amino]oxy]alkanoic acids.—J. Med. Chem., 1994, 37, 3588-3604.
On the technique in general: Loss of bound radioactivity is the signal in a displacement assay; it reports binding, not function.

[3] abbreviates: read-out: IC 50: concentration required for replacing 50% of [3H]SQ-29.548 bound to receptors TPα.

`CC(C)(C)NC(=O)NS(=O)(=O)c1cc([N+](=O)[O-])ccc1NC1CCCCC1` [Compound 29, N-[(2-cyclohexylamin-5-nitrobenzene)sulfonyl]N′-tert-butyl urea]: in assay [1], the pIC50 is 7.69. Also, in assay [2], the pIC50 is 8.11, the inhibition at 1 µM worked out at 97.4% and the inhibition at 0.1 µM was determined as 95.4%.

With `O=[N+]([O-])c1ccc(NC2CCCCCC2)c(S(=O)(=O)NC(=S)NC2CCCCC2)c1` [Compound 40, N-[(2-cycloheptylamin-5-nitrobenzene)sulfonyl]N′-cyclohexyl thiourea], the pIC50 in assay [1] is 7.75. Besides, in assay [2], the pIC50 was 7.57, the inhibition at 1 µM amounted to 94.4% and the inhibition at 0.1 µM came out at 63%.

As to `CC(C)(C)NC(=O)NS(=O)(=O)c1cc([N+](=O)[O-])ccc1NC1CCCCCC1` [Compound 25], the pIC50 in assay [1] was 7.71. In assay [2], the pIC50 was 7.98, the inhibition at 1 µM came out at 100% and the inhibition at 0.1 µM worked out at 95.2%.

Turning to `CC(C)NC(=O)NS(=O)(=O)c1cc([N+](=O)[O-])ccc1NC(C)(C)C` [Compound 56], the “Affinity: percent of [3H]SQ-29.548 specifically substituted by the examined compound, 10^-6M” value (“Affinity: percent … 10^-6M” for short) in assay [2] was 0.0%.

As to `CC(C)NC(=O)NS(=O)(=O)c1cc([N+](=O)[O-])ccc1NC1CC2CCC1C2` (centres unmarked) [Compound 54], in assay [2], the “Affinity: percent … 10^-6M” value came out at 91.7%.

Regarding `O=C(NC1CCCCC1)NS(=O)(=O)c1cc([N+](=O)[O-])ccc1NC1CCCCCC1` [Compound 22], the pIC50 in assay [1] was 7.42. Further, in assay [2], the pIC50 was 7.38, the inhibition at 1 µM amounted to 100% and the inhibition at 0.1 µM worked out at 84.1%.

Take `CC(C)(C)NC(=O)NS(=O)(=O)c1cc([N+](=O)[O-])ccc1NC1CCCCCCC1` [Compound 26]: in assay [2], the pIC50 was 7.77, the inhibition at 1 µM turned out to be 94.3% and the inhibition at 0.1 µM was 93.3%.

On to `CCCCCNC(=O)NS(=O)(=O)c1cc(C#N)ccc1NC1CCCCC1` [Compound 97], for which, in assay [2], the pIC50 was 7.01 and the inhibition at 1 µM was found to be 89.7%.

`CC(C)NC(=O)NS(=O)(=O)c1cc([N+](=O)[O-])ccc1NC(C)c1ccccc1` (racemic) [Compound 75]: the “Affinity: percent … 10^-6M” value in assay [2] is 93.1%.

As to `CCNC(=O)NS(=O)(=O)c1cc([N+](=O)[O-])ccc1NC1CCCCCCC1` [Compound 44], in assay [2], the “Affinity: percent … 10^-6M” value was determined as 80.2% and the “Affinity: percent of [3H]SQ-29.548 specifically substituted by the examined compound, 10^-7M” value (“Affinity: percent … 10^-7M” below) came to 51.3%.

As for `CCCCCNC(=O)NS(=O)(=O)c1cc([N+](=O)[O-])ccc1Nc1c(C)cc(C)cc1C` [Compound 92], in assay [2], the pIC50 was 8.79, the inhibition at 1 µM turned out to be 98.8% and the inhibition at 0.1 µM was 95.2%.

For the compound `CCNC(=S)NS(=O)(=O)c1cc([N+](=O)[O-])ccc1NC1CCCCCC1` [Compound 39], the “Affinity: percent … 10^-6M” value in assay [2] was found to be 74.5%.

Take `CC(C)NC(=O)NS(=O)(=O)c1cc([N+](=O)[O-])ccc1NC1CCCCCC1` [Compound 1]: in assay [2], the “Affinity: percent … 10^-6M” value amounted to 93.6% and the “Affinity: percent … 10^-7M” value came to 68.0%.

As for `CC(C)NC(=O)NS(=O)(=O)c1cc([N+](=O)[O-])ccc1NCc1ccccc1` [Compound 21], in assay [2], the “Affinity: percent … 10^-6M” value is 92.2% and the “Affinity: percent … 10^-7M” value was 44.2%.

Take `Cc1cccc(Nc2ccc([N+](=O)[O-])cc2S(=O)(=O)NC(=O)NC(C)C)c1C` [Compound 49]: in assay [2], the pIC50 was 8.70, the inhibition at 1 µM turned out to be 98.3% and the inhibition at 0.1 µM is 94.9%.

On to `CC(C)(C)NC(=NC#N)NS(=O)(=O)c1cc([N+](=O)[O-])ccc1NC1CCCCC1` [Compound 74], for which, in assay [2], the “Affinity: percent … 10^-6M” value stood at 90.9%.

On to `Cc1cccc(Nc2ccc([N+](=O)[O-])cc2S(=O)(=O)NC(=O)NC(C)(C)C)c1` [Compound 19], for which, in assay [2], the “Affinity: percent … 10^-6M” value was determined as 97.8% and the “Affinity: percent … 10^-7M” value stood at 93.3%. Moreover, the pIC50 in assay [2] (setting [3]) was 8.40.

As for `Cc1cccc(Nc2ccc([N+](=O)[O-])cc2S(=O)(=O)NC(=NC#N)NC2CCCCC2)c1` [Compound 6], the “Affinity: percent … 10^-6M” value in assay [2] stood at 29.8%.

Take `C=CCNC(=O)NS(=O)(=O)c1cc([N+](=O)[O-])ccc1NC1CCCCCC1` [Compound 33]: in assay [2], the “Affinity: percent … 10^-6M” value is given as 86.6% and the “Affinity: percent … 10^-7M” value is 52.4%.

Consider `O=C(NC1CCCCC1)NS(=O)(=O)c1cc([N+](=O)[O-])ccc1NC1CCCCC1` [Compound 17], for which the pIC50 in assay [1] was 8.86. Also, in assay [2], the pIC50 is 7.64, the inhibition at 1 µM came to 100% and the inhibition at 0.1 µM is 88%.

Regarding `CC(C)NC(=O)NS(=O)(=O)c1cc(C#N)ccc1NC1CCCCC1` [Compound 43], the “Affinity: percent … 10^-6M” value in assay [2] is listed as 50.0%.

With `CCNC(=O)NS(=O)(=O)c1cc([N+](=O)[O-])ccc1NC1CCCCC1` [Compound 27], the “Affinity: percent … 10^-6M” value in assay [2] was 79.6%.

`CCCCCCCCCCNc1ccc([N+](=O)[O-])cc1S(=O)(=O)NC(=O)NC(C)C` [Compound 60]: the “Affinity: percent … 10^-6M” value in assay [2] stood at 79.1%.

Turning to `Cc1cccc(Nc2ccc([N+](=O)[O-])cc2S(=O)(=O)NC(=NC#N)NC(C)C)c1` [Compound 3], the “Affinity: percent … 10^-6M” value in assay [2] is 20.1%.

For the compound `CC(C)(C)NC(=O)NS(=O)(=O)c1cc([N+](=O)[O-])ccc1NC1CC2CCC1C2` (centres unmarked) [Compound 55], in assay [2], the pIC50 was 8.47, the inhibition at 1 µM came to 98.2% and the inhibition at 0.1 µM turned out to be 93.3%.

Consider `CCCCCCNC(=O)NS(=O)(=O)c1cc([N+](=O)[O-])ccc1NC1CCCCC1` [Compound 83], for which, in assay [2], the pIC50 was 8.35, the inhibition at 1 µM was determined as 98.5% and the inhibition at 0.1 µM is 92.7%.

On to `CC(C)NC(=S)NS(=O)(=O)c1cc([N+](=O)[O-])ccc1NC1CCCC1` [Compound 37], for which, in assay [2], the “Affinity: percent … 10^-6M” value was found to be 72.3%.

Regarding `CC(C)NC(=S)NS(=O)(=O)c1cc([N+](=O)[O-])ccc1NC1CCCCCC1` [Compound 12], the “Affinity: percent … 10^-6M” value in assay [2] is given as 67.2%.

`CC(C)NC(=O)NS(=O)(=O)c1cc([N+](=O)[O-])ccc1N1CCOCC1` [Compound 62]: in assay [2], the “Affinity: percent … 10^-6M” value was 3.7%.

In the case of `CC(C)NC(=O)NS(=O)(=O)c1cc([N+](=O)[O-])ccc1NC12CC3CC(CC(C3)C1)C2` [Compound 58], in assay [2], the “Affinity: percent … 10^-6M” value was 83.2%.

As for `Cc1ccccc1Nc1ccc([N+](=O)[O-])cc1S(=O)(=O)NC(=O)NC(C)(C)C` [Compound 52], in assay [2], the “Affinity: percent … 10^-6M” value was found to be 99.0% and the “Affinity: percent … 10^-7M” value turned out to be 93.9%. Also, the pIC50 in assay [2] (setting [3]) was 8.55.

As for `Cc1cccc(Nc2ccc([N+](=O)[O-])cc2S(=O)(=O)NC(=O)NC(C)(C)C)c1C` [Compound 73], in assay [2], the pIC50 was 8.92, the inhibition at 1 µM amounted to 98.3% and the inhibition at 0.1 µM stood at 95.6%.
